Values belong to the compound of their own block, whether it stands above or below them.
Key:
[1] = tested on: A549; assay: Antiproliferative activity against human A549 cells expressing wild type p53 after 72 hrs by MTT assay; details: A549, 72 h
[2] = tested on: KB; assay: Antiproliferative activity against human KB cells expressing p53 mutant after 72 hrs by MTT assay; assay type: functional, cell-based
[3] = tested on: HCT-116; assay: Antiproliferative activity against human HCT116 cells expressing wild type p53 after 72 hrs by MTT assay
[4] = molecular target: Tumour suppressor p53/oncoprotein Mdm2 (Homo sapiens, UniProt Q00987); assay: (§1) Inhibition of p53-MDM2 expressed in Escherichia coli BL-21 (DE3) after 1 hr by fluorescence polarization competitive binding assay
[5] = tested on: PC-3; assay: Antiproliferative activity against p53 deficient human PC3 cells after 72 hrs by MTT assay; details: PC-3, 72 h
[6] = tested on: A549; assay: Cell cycle arrest in human A549 cells expressing wild type p53 assessed as accumulation at G2/M phase at 10 uM after 72 hrs using propidium iodide staining by flow cytometric analysis (reference value: 7.49%); assay type: functional
[7] = tested on: A549; assay: Cell cycle arrest in human A549 cells expressing wild type p53 assessed as accumulation at G0/G1 phase at 10 uM after 72 hrs using propidium iodide staining by flow cytometric analysis (reference value: 73.28%); assay type: functional
[8] = tested on: A549; assay: Cell cycle arrest in human A549 cells expressing wild type p53 assessed as accumulation at S phase at 10 uM after 72 hrs using propidium iodide staining by flow cytometric analysis (reference value: 19.23%); assay type: functional
[9] = molecular target: Tumour suppressor p53/oncoprotein Mdm2 (Homo sapiens, UniProt P04637+Q00987); assay: as §1
Tumour suppressor p53/oncoprotein Mdm2 (Homo sapiens, UniProt P04637+Q00987), sequence (P04637 whole entry): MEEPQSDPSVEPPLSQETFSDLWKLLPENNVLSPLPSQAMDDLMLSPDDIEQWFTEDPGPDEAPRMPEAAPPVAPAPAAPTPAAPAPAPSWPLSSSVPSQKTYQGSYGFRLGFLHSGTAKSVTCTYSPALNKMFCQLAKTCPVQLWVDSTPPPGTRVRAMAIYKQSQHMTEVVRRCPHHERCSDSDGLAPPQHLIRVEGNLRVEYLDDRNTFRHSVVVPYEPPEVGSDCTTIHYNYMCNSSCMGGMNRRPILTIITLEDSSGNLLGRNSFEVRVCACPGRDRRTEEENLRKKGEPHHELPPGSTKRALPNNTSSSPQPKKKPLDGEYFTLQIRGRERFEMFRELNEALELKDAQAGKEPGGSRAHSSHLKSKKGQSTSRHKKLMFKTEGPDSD
Tumour suppressor p53/oncoprotein Mdm2 (Homo sapiens, UniProt P04637+Q00987), sequence (Q00987 whole entry): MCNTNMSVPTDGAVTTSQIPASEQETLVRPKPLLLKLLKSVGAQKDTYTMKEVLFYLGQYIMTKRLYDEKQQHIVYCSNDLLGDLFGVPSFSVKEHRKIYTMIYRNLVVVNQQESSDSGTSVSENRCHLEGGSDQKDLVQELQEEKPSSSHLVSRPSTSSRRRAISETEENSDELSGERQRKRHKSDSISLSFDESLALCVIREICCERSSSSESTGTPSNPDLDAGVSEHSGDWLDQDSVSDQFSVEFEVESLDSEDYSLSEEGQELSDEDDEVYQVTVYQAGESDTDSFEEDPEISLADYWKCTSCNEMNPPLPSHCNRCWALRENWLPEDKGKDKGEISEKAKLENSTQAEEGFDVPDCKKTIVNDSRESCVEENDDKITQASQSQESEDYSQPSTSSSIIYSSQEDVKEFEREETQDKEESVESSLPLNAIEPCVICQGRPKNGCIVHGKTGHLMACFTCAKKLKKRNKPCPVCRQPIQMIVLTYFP

Tumour suppressor p53/oncoprotein Mdm2 (Homo sapiens, UniProt Q00987), sequence (P04637 whole entry): as the sequence (P04637 whole entry) above
Tumour suppressor p53/oncoprotein Mdm2 (Homo sapiens, UniProt Q00987), sequence (Q00987 whole entry): as the sequence (Q00987 whole entry) above

IC50 [1]: 9.1 µM
IC50 [2]: 3.6 µM
IC50 ([3]; Homo sapiens, HCT-116, 72 h): 5.81 µM
Ki [4]: 0.6 µM
IC50 [5]: 33.1 µM
SMILES: COc1ccc(C2=NC(c3ccc(Cl)cc3)C(c3ccc(Cl)cc3)N2C(=O)OCCNC(C)=O)c(OC(C)C)c1 (configuration not stated)
Activity [6]: 30.93%
Activity [7]: 61.67%
Activity [8]: 7.4%

IC50 [1]: 8.29 µM
IC50 [2]: 7.39 µM
IC50 ([3]; Homo sapiens, HCT-116, 72 h): 10.9 µM
Ki [4]: 0.48 µM
IC50 [5]: 14.3 µM
SMILES: COc1ccc(C2=NC(c3ccc(Cl)cc3)C(c3ccc(Cl)cc3)N2C(=O)NCC(=O)N2CCOCC2)c(OC(C)C)c1 (configuration not stated)

Ki [4]: 8.77 µM
SMILES: COc1ccc(C2=NC(c3ccc(Cl)cc3)C(c3ccc(Cl)cc3)N2C(=O)N2CCC(C(=O)O)CC2)c(OC(C)C)c1 (configuration not stated)

Ki [4]: 2.3 µM
SMILES: COCCOC(=O)N1C(c2ccc(OC)cc2OC(C)C)=NC(c2ccc(Cl)cc2)C1c1ccc(Cl)cc1 (configuration not stated)

Ki [9]: Not Active
SMILES: CCC1=NC(c2ccc(Cl)cc2)C(c2ccc(Cl)cc2)N1C(=O)N(CC)CC (configuration not stated)

Ki [9]: Not Active
SMILES: CCN(CC)CC(=O)N1C(c2ccc(OC)cc2OC(C)C)=NC(c2ccc(Cl)cc2)C1c1ccc(Cl)cc1 (configuration not stated)

Ki [4]: 32.4 µM
SMILES: COc1ccc(C2=NC(c3ccc(Cl)cc3)C(c3ccc(Cl)cc3)N2C(=O)OCc2ccccc2)c(OC(C)C)c1 (configuration not stated)

Ki [9]: Not Active
SMILES: COc1ccc(C2=NC(c3ccc(C(F)(F)F)cc3)C(c3ccc(C(F)(F)F)cc3)N2C(=O)N2CCN(C(C)=O)CC2)c(OC(C)C)c1 (configuration not stated)

Ki [4]: 82.1 µM
SMILES: COc1ccc(C2=NC(c3ccc(Cl)cc3)C(c3ccc(Cl)cc3)N2C(=O)CN2CCCCC2)c(OC(C)C)c1 (configuration not stated)

Ki [4]: 1.59 µM
SMILES: CCOC(=O)CN(C)C(=O)N1C(c2ccc(OC)cc2OC(C)C)=NC(c2ccc(Cl)cc2)C1c1ccc(Cl)cc1 (configuration not stated)

Ki [9]: Not Active
SMILES: CCC1=NC(c2ccc(Cl)cc2)C(c2ccc(Cl)cc2)N1C(=O)Nc1ccc(N2CCCC2)cc1 (configuration not stated)

Second part, the compound before the results:

SMILES: COc1ccc(C2=NC(c3ccc(Cl)cc3)C(c3ccc(Cl)cc3)N2C(=O)OCCN(C)C)c(OC(C)C)c1 (configuration not stated)
IC50 [1]: 10.8 µM
IC50 [2]: 8.27 µM
IC50 ([3]; hct-116): Not Active
Ki [4]: 0.57 µM
IC50 [5]: 11 µM

SMILES: COc1ccc(C2=NC(c3ccc(Cl)cc3)C(c3ccc(Cl)cc3)N2C(=O)CN2CCOCC2)c(OC(C)C)c1 (configuration not stated)
Ki [4]: 2.64 µM

SMILES: CCC1=NC(c2ccc(Cl)cc2)C(c2ccc(Cl)cc2)N1C(=O)N1CCN(C)CC1 (configuration not stated)
Ki [9]: Not Active

SMILES: COc1ccc(C2=NC(c3ccc(Cl)cc3)C(c3ccc(Cl)cc3)N2C(=O)CCN2CCOCC2)c(OC(C)C)c1 (configuration not stated)
IC50 [1]: 3.82 µM
IC50 ([3]; Homo sapiens, HCT-116, 72 h): 7.57 µM
Ki [4]: 1.3 µM
IC50 [5]: 2.74 µM

SMILES: COc1ccc(C2=NC(c3ccc(Cl)cc3)C(c3ccc(Cl)cc3)N2C(=O)CN2CCN(C)CC2)c(OC(C)C)c1 (configuration not stated)
Ki [4]: 25.8 µM

SMILES: COc1ccc(C2=NC(c3ccc(C(F)(F)F)cc3)C(c3ccc(C(F)(F)F)cc3)N2C(=O)CN2CCN(C(C)=O)CC2)c(OC(C)C)c1 (configuration not stated)
Ki [9]: Not Active

SMILES: COc1ccc(C2=NC(c3ccccc3)C(c3ccccc3)N2C(=O)CN2CCN(C)CC2)c(OC(C)C)c1 (configuration not stated)
Ki [9]: Not Active

SMILES: CCN(CC)CC(=O)N1C(c2ccc(OC)cc2OC(C)C)=NC(c2ccccc2)C1c1ccccc1 (configuration not stated)
Ki [9]: Not Active

SMILES: COc1ccc(C2=NC(c3ccc(Cl)cc3)C(c3ccc(Cl)cc3)N2C(=O)N2CCN(C(C)=O)CC2)c(OC(C)C)c1 (configuration not stated)
Activity [6]: 19.27%
IC50 [1]: 2.33 µM
Activity [7]: 66.95%
IC50 [2]: 35.2 µM
Activity [8]: 13.78%
IC50 ([3]; Homo sapiens, HCT-116, 72 h): 4.58 µM
IC50 [5]: 29.2 µM

SMILES: CCOCCOC(=O)N1C(c2ccc(OC)cc2OC(C)C)=NC(c2ccc(Cl)cc2)C1c1ccc(Cl)cc1 (configuration not stated)
Ki [4]: 1.38 µM

SMILES: CCC1=NC(c2ccc(Cl)cc2)C(c2ccc(Cl)cc2)N1C(=O)NCC(=O)N1CCOCC1 (configuration not stated)
Ki [9]: Not Active

SMILES: COc1ccc(C2=NC(c3ccc(Cl)cc3)C(c3ccc(Cl)cc3)N2C(=O)CCN2CCN(C)CC2)c(OC(C)C)c1 (configuration not stated)
IC50 [1]: 3.19 µM
IC50 [2]: 5.81 µM
IC50 ([3]; Homo sapiens, HCT-116, 72 h): 5.4 µM
Ki [4]: 0.9 µM
IC50 [5]: 8.44 µM

SMILES: CCN(CC)CCC(=O)N1C(c2ccc(OC)cc2OC(C)C)=NC(c2ccc(Cl)cc2)C1c1ccc(Cl)cc1 (configuration not stated)
IC50 [1]: 3.82 µM
IC50 ([3]; Homo sapiens, HCT-116, 72 h): 3.73 µM
Ki [4]: 1.22 µM
IC50 [5]: 3.32 µM

SMILES: COc1ccc(C2=NC(c3ccc(Cl)cc3)C(c3ccc(Cl)cc3)N2C(=O)N(C)C)c(OC(C)C)c1 (configuration not stated)
Ki [4]: 3.32 µM

SMILES: COc1ccc(C2=NC(c3ccc(Cl)cc3)C(c3ccc(Cl)cc3)N2C(=O)N2CCOCC2)c(OC(C)C)c1 (configuration not stated)
Ki [4]: 4.07 µM
